# In US20200246465A1, “USE OF TRYPTOPHAN DERIVATIVES FOR PROTEIN FORMULATIONS” (Genentech, Inc., priority 2015, published 2020):
# “And” between values parts separate entries of the source, which are not always exact repeats. Equal entries are not always repeated.
# What was measured:
# [1] = Fenton stress of NAT in formulation buffer, RP-HPLC at 240 nm; format: physicochemical; settings: for % NAT degradation ± 1SD: Fenton stress (0.2 mM FeCl2, 10 ppm H2O2, 3 hours 40° C.)
# Method: FeCl2 (Sigma Aldrich, 98% purity) and H2O2 (Sigma Aldrich, 30% w/w in H2O) were added to a final concentration of 0.2 mM and 10 ppm, respectively, to a histidine-containing buffer at pH 5.5 with 0.3 mM NAT ±5 mM L-Met, pH 5.5. Upon addition of H2O2 the vials were vortexed briefly and incubated for 3 hours at 40° C. Oxidation was quenched by the addition of L-Met to a final concentration of 100 mM. After the addition of the quenching solution, the final NAT concentration was 0.2 mM.
# NAT and NAT degradants were separated on an Agilent 1200 series HPLC or Waters H Class UPLC using an Agilent ZORBAX SB-C18 3.5 μm, 4.6×75 mm reverse phase column. Column temperature was held at 30±0.8° C. by a thermostat controller. The gradients used for HPLC and UPLC are listed in Tables 5 and 6, respectively (note: the shorter gradient on the UPLC was designed to accommodate earlier retention times and the column re-equilibration period was elongated due to the larger range of system pressure at a flow rate of 1.0 ml/min). NAT degradation products were detected at 240 nm. The standard bandwidth setting (8 nm for Agilent 1200 HPLC, 4.8 nm for Waters H-Class) was used for analysis on each instrument. The autosampler was maintained at 5±3° C. 10 nmol of NAT and/or NAT degradants (50 μl for most samples) was injected on to the column for analysis. The chromatograms were processed using Dionex Chromeleon software.
# Total NAT degradation for each sample was calculated by comparing NAT peak area to the control sample for each stress model (Table 7). NAT degradation ranged from 3% (thermal stress, non-His buffer) to 83% (ICH light stress, His buffer).
# [2] = AAPH oxidation stress of NAT in formulation buffer, RP-HPLC at 240 nm; format: physicochemical; settings: for % NAT degradation ± 1SD: AAPH stress (1.0 mM AAPH, 40° C. 16 hours)
# Method: AAPH (Calbio Chem, 99.8%) was used to model oxidative degradation by alkyl peroxides. Histidine and non-histidine buffers at pH 5.5 containing 0.3 mM NAT ±5 mM L-Met pH 5.5 were treated with an aqueous AAPH solution to a final concentration of 1.0 mM AAPH. An equivalent volume of Milli-Q H2O was added to control samples. Samples were incubated at 40° C. for 16 hours. Oxidation was quenched by the addition of L-Met to a final concentration of 20 mM. After the addition of the quenching solution, the final NAT concentration was 0.2 mM. NAT and NAT degradants were separated on an Agilent 1200 series HPLC or Waters H Class UPLC using an Agilent ZORBAX SB-C18 3.5 μm, 4.6×75 mm reverse phase column. Column temperature was held at 30±0.8° C. by a thermostat controller. The gradients used for HPLC and UPLC are listed in Tables 5 and 6, respectively (note: the shorter gradient on the UPLC was designed to accommodate earlier retention times and the column re-equilibration period was elongated due to the larger range of system pressure at a flow rate of 1.0 ml/min). NAT degradation products were detected at 240 nm. The standard bandwidth setting (8 nm for Agilent 1200 HPLC, 4.8 nm for Waters H-Class) was used for analysis on each instrument. The autosampler was maintained at 5±3° C. 10 nmol of NAT and/or NAT degradants (50 μl for most samples) was injected on to the column for analysis. The chromatograms were processed using Dionex Chromeleon software. Protein-containing samples were diluted in guanidine and the proteins removed via ultra-filtration (Amicon spin filters with a 30 kDa molecular weight cut-off). […] Using the final sample preparation conditions, recovery of NAT was 94-99% for three tested antibody/antibody derivatives and recovery of NAT degradants was 98-100% (data not shown). […] Total NAT degradation for each sample was calculated by comparing NAT peak area to the control sample for each stress model (Table 7). NAT degradation ranged from 3% (thermal stress, non-His buffer) to 83% (ICH light stress, His buffer). The impact of low concentrations of protein on AAPH-induced NAT degradation was also analyzed. Two antibodies (protein1 and protein2) were diluted to 1.0 mg/ml in buffer and formulated with 0.3 mM NAT (˜45:1 mol NAT:mol protein). Upon AAPH stress, the level of NAT degradation was largely consistent between protein-containing and protein-free solutions (˜40% loss in NAT peak area), as was the distribution of oxidant species (FIG. 11).
# [3] = His + 5 mM Met buffer, 0.3 mM NAT
smiles,measurement,setting,value
"CC(=O)N[C@@H](Cc1c[nH]c2ccccc12)C(=O)O [NAT, N-acetyl-tryptophan]",improvement to NAT stability by 5 mM Met (total NAT loss),[1]; Fenton model,25%
same,% NAT degradation ± 1SD,[1]; [3],15.2 ± 0.7 (n = 3) %
same,% NAT degradation ± 1SD,"[1]; His buffer pH 5.5, 0.3 mM NAT",40 ± 3 (n = 3) %
same,NAT degradation (loss),"[1]; Fenton stress, under all tested conditions",30-40% and 33-41%
same,improvement to NAT stability by 5 mM Met (total NAT loss),"[2]; AAPH model, depending on buffer",4-8%
same,% NAT degradation ± 1SD,[2]; [3],34.7 ± 0.1 (n = 3) %
same,% NAT degradation ± 1SD,"[2]; His buffer pH 5.5, 0.3 mM NAT",39.8 ± 0.2 (n = 3) %
same,% NAT degradation ± 1SD,"[2]; Non-His + 5 mM Met buffer, 0.3 mM NAT",32.9 ± 0.5 (n = 3) %
same,% NAT degradation ± 1SD,"[2]; Non-His buffer pH 5.5, 0.3 mM NAT",41.1 ± 0.7 (n = 3) %
same,NAT degradation (loss),"[2]; AAPH stress, under all tested conditions",30-40% and 33-41%
same,loss in NAT peak area,"[2]; AAPH stress, 0.3 mM NAT in histidine-based buffer, protein-free or with 1.0 mg/ml protein1 or protein2",~40%
